IC50 data for 21 molecules are collected here from patent publication US20220144812A1, “QUINOLINE DERIVATIVES AND THEIR USE FOR THE TREATMENT OF CANCER” (Epizyme, Inc., priority 2019, published 2022).

Molecules are shown by their SMILES. Where two headings read alike, the source gives them in different places.

Assay [1] has as its system H3K18Ac in HB-CLS-2 cells. Description: H3K18AC in-cell western (ICW) assay. In kind it is cell-based. The following applies: H3K18Ac in-cell western, read-out: CREBBP ICW IC50. The source says:
The following example describes methods and materials relating to an H3K18AC in-cell western assay. IC50 values (micromolar (μM)) are summarized in Table 1, Table 2, and Table 3 under the column labeled: “CREBBP ICW IC50 (micromolar).”
MATERIALS: HB-CLS-2 cell line, DMEM: Ham's F12 medium (1:1 mixture), penicillin-streptomycin, heat inactivated fetal bovine serum, D-PBS, Odyssey blocking buffer, 800CW goat anti-rabbit IgG (H+L) antibody, Licor Odyssey CLx Infrared Scanner, H3K18Ac rabbit monoclonal antibody. DRAQS fluorescent probe solution (5 mM), and 100% methanol were commercially available. HB-CLS-2 adherent cells were maintained in complete growth medium (DMEM: Ham's F12 supplemented with 10% v/v heat inactivated fetal bovine serum) and cultured at 37° C. under 5% CO2.
METHOD: Cell Treatment, ICW for detection of H3K18Ac and DNA content. HB-CLS-2 cells were seeded in assay medium (DMEM: Ham's F12 supplemented with 10% v/v heat inactivated fetal bovine serum and 1% Penicillin/Streptomycin) at a concentration of 80,000 cells per mL in a Poly-D-Lysine coated 384-well culture plates at 50 μL per well. Plates were incubated at room temperature for 30 minutes and then incubated at 37° C., 5% CO2 for additional 16-24 hours. Compounds and DMSO normalization were then added directly to the plates using a D300 Digital Dispenser and returned to the incubator at 37° C., 5% CO2 for 2 hrs. After the incubation, the contents of the plates were discarded into the appropriate waste stream and blotted on laboratory tissue to remove residual liquid. 90 μL per well of 100% ice cold methanol was added to the plates and incubated at room temperature for 15 minutes. Then methanol was then discarded into the appropriate waste stream and the plates again blotted on laboratory tissue to remove residual liquid. Plates were transferred to a Biotek 405 plate washer and washed 3 times with 100 μL per well of wash buffer (1X PBS containing 0.1% Triton X-100 (v/v)). Next, 50 μL per well of Odyssey blocking buffer with 0.1% Tween 20 (v/v) was added to each plate and incubated for 1 hour at room temperature. Blocking buffer was removed and 20 μL of primary antibody were added (α-H3K18Ac diluted 1:800 in Odyssey buffer with 0.1% Tween 20 (v/v)) and plates were incubated overnight (16 hours) at 4° C. Plates were washed 5 times with 100 μL per well of wash buffer. Next 20 μL per well of secondary antibody was added (1:400 800CW goat anti-rabbit IgG (H+L) antibody, 1:2000 DRAQ5 in Odyssey buffer with 0.1% Tween 20 (v/v)) and incubated for 1 hour at room temperature. The plates were washed 3 times with 100 μL per well wash buffer then 3 times with 100 μL per well of water. Plates were allowed to dry at room temperature then imaged on the Licor Odyssey CLx machine which measured integrated intensity at 700 nm and 800 nm wavelengths. Both 700 and 800 channels were scanned.

Assay [2] has as its system 647V cells. In words: High throughput proliferation (HTP) assay. In kind it is cell-based. The following applies: high throughput proliferation, read-out: CREBBP HTP IC50. The source says: The following example describes methods and materials relating to a high throughput proliferation (HTP) assay. IC50 values (micromolar) are summarized in Table 1, Table 2, and Table 3 under the column labeled: “CREBBP HTP IC50 (micromolar).”
MATERIALS: 647V cell line, Dulbecco's MEM, penicillin-streptomycin, heat inactivated fetal bovine serum, D-PBS, and CellTiter-Glo were commercially available.
647V adherent cells were maintained in complete growth medium (Dulbecco's MEM supplemented with 15% v/v heat inactivated fetal bovine serum) and cultured at 37° C. under 5% CO2.
METHOD: Measurement of the effect of compound in High Throughput Proliferation (HTP) assays was performed as follows: Exponentially growing 647V cells were plated, in triplicate, in 384-well plates at the appropriate cell density in a final volume of 50 μl. Cells were incubated in the presence of increasing concentrations of compound. Viable cell number was determined at day 7 by addition of 35 μl CellTiter-Glo to each well of the plate, incubated in the dark for 30 minutes, and read on a PerkinElmer EnVision instrument to enumerate the number of cells.

For assay [3], the target named is T1, CREBBP (1084-1701) (Homo sapiens, UniProt Q92793).
T1 construct: measured in the following biochemical assay using CREBBP (1084-1701); purchased
T1 sequence (Q92793 1084-1701): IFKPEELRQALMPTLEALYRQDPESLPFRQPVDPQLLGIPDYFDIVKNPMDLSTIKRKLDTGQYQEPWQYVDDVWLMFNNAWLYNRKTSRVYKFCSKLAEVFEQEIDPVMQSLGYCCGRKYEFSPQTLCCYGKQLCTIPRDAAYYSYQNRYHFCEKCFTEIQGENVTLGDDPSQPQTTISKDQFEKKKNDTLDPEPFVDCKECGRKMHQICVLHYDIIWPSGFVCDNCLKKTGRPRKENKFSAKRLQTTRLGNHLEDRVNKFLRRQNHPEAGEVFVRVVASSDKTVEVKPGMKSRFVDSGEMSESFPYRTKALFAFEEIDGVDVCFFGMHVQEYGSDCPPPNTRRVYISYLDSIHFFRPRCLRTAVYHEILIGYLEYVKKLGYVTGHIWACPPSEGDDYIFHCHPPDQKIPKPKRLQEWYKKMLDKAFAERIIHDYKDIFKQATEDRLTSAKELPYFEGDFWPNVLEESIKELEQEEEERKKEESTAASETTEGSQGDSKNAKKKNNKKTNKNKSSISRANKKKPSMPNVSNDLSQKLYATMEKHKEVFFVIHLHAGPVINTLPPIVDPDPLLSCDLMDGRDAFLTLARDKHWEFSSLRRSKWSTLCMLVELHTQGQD
Description: Biochemical assay for CREBBP (1084-1701), SAMDI. The settings on record: SAMDI, read-out: CREBBP Biochemistry IC50. In a few lines:
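CREBBP (1084-1701) preincubated with compound 30 min at RT, then substrate mix (biotin-H3 11-25 K14R/K23R peptide, acetyl-CoA) added for 30 min at RT. Reaction stopped with formic acid, neutralised with sodium bicarbonate. Peptide acetylation read by SAMDI mass spectrometry to derive IC50.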

[4] abbreviates: Homo sapiens, 647-V, 647V cells.

By IC50 is commonly meant the concentration that inhibits the measured activity by half. On to `CCn1ncc(CN(C)C(=O)c2nc(-c3ccc4nc[nH]c4c3)nc3ccc(Cl)cc23)c1C` [Compound 47], for which the half-inhibitory concentration (IC50) in assay [1] is 0.43 µM; in assay [2] (Homo sapiens, 647-V) it was 0.42 µM.

For `CCn1ncc(CN(C)C(=O)c2nc(-c3ccc4[nH]cnc4c3)nc3ccc(Cl)cc23)c1C` [Compound 57], the IC50 in assay [1] is 0.66 µM; in assay [2] (Homo sapiens, 647-V) it was 0.5 µM.

For `CCn1ncc(CN(C)C(=O)c2nc(-c3ccc4nc[nH]c4c3)nc3ccc(Cl)cc23)c1C` [Compound 59], the half-inhibitory concentration (IC50) in assay [1] was 0.67 µM; in assay [2] it was 0.44 µM.

For `CCn1ncc(CN(C)C(=O)c2cc(-n3cc4c(n3)CN(C(=O)OC(C)(C)C)CC4)nc3ccc(Cl)cc23)c1C` [Compound 178], the IC50 in assay [1] came to 17 µM; in assay [2] (Homo sapiens, 647-V), 4.8 µM.

Take `CCn1ncc(CN(C)C(=O)c2nc(-c3cc(Cl)cc(OCCCNC(=O)OC(C)(C)C)c3)nc3ccc(Cl)cc23)c1C` [Compound 180]: the concentration for half-maximal inhibition (IC50) in assay [1] was determined as 19 µM; in assay [2] (Homo sapiens, 647-V) it was 20 µM.

With `CCn1ncc(CN(C)C(=O)c2nc(-n3ncc4c3CN(C(=O)OC(C)(C)C)CC4)nc3ccc(Cl)cc23)c1C` [Compound 192], the IC50 in assay [1] stood at 20 µM; in assay [2] (Homo sapiens, 647-V), 9.4 µM.

Take `CCn1ncc(CN(C)C(=O)c2nc(-n3cc4c(n3)CN(C(=O)OC(C)(C)C)CC4)nc3ccc(Cl)cc23)c1C` [Compound 193]: the concentration for half-maximal inhibition (IC50) worked out at 20 µM in assay [1] and 8.2 µM in assay [2] (Homo sapiens, 647-V).

With `CCn1ncc(CN(C)C(=O)c2nc(N3CCCN(C)CC3)nc3ccc(Cl)cc23)c1C` [Compound 196], the concentration for half-maximal inhibition (IC50) came out at 20 µM in assay [1] and 17 µM in assay [2] (Homo sapiens, 647-V).

In the case of `CCc1cc(-c2nc(C(=O)N(C)Cc3cnn(CC)c3C)c3cc(Cl)ccc3n2)ccc1OCCCN(C)C(=O)OC(C)(C)C` [Compound 209], the half-maximal inhibitory concentration (IC50) in assay [1] (HB-CLS-2 cells) turned out to be 20 µM; in assay [2] (setting [4]), 8.8 µM.

As to `CCn1ncc(CN(C)C(=O)c2cc(-c3ccc(OCCCNC)cn3)nc3ccc(Cl)cc23)c1C` [Compound 219], the IC50 in assay [1] (HB-CLS-2 cells) and in assay [2] (setting [4]) was 20 µM each time.

Take `CCc1[nH]cc(CN(C)C(=O)c2nc(-c3ccccc3Cl)nc3ccc(Cl)cc23)c1C` [Compound 221]: the half-inhibitory concentration (IC50) in assay [1] (HB-CLS-2 cells) is 20 µM; in assay [2] (setting [4]) it was 10 µM.

With `CCc1noc(CN(C)C(=O)c2nc(-c3ccccc3Cl)nc3ccc(Cl)cc23)c1C` [Compound 356], the IC50 was determined as 1.9 µM in assay [1] (HB-CLS-2 cells) and 0.4 µM in assay [3].

For the molecule `CCn1ncc(CN(C)C(=O)c2nc(-c3cccc(Cl)c3)nc3ccc(COC)cc23)c1C` [Compound 357], the IC50 in assay [1] (HB-CLS-2 cells) was 0.72 µM; in assay [3] it was 0.028 µM.

Turning to `CCn1ncc(CN(C)C(=O)c2nc(-c3cn[nH]c3)nc3ccc(Cl)cc23)c1C` [Compound 358], the values for the IC50 in assay [1] (HB-CLS-2 cells) and in assay [3] were 13 µM and 16 µM, respectively.

For the molecule `CCn1ncc(CN(C)C(=O)c2nc(-c3ccccc3Cl)nc3cc(C)c(Cl)cc23)c1C` [Compound 359], the half-maximal inhibitory concentration (IC50) was determined as 1 µM in assay [1] (HB-CLS-2 cells) and 0.4 µM in assay [3].

With `CCc1ccc2nc(-c3cccc(Cl)c3)nc(C(=O)N(C)Cc3cnn(CC)c3C)c2c1` [Compound 361], the IC50 in assay [1] (HB-CLS-2 cells) was 0.48 µM; in assay [3], 0.0028 µM.

Regarding `CCn1ncc(CN(C)C(=O)c2nc(-c3ccccc3C)nc3ccc(Cl)cc23)c1C` [Compound 362], the 50% inhibitory concentration (IC50) in assay [1] (HB-CLS-2 cells) turned out to be 1.2 µM; in assay [3], 0.71 µM.

Regarding `CCn1ncc(CN(C)C(=O)c2nc(-c3cncn3C)nc3ccc(Cl)cc23)c1C` [Compound 363], the figures for the IC50 in assay [1] (HB-CLS-2 cells) and in assay [3] were 7.4 µM and 9.2 µM, respectively.

Regarding `CCn1ncc(CN(C)C(=O)c2cc(-c3cccc(Cl)c3)nc3ccc(N(C)C)cc23)c1C` [Compound 369], the results for the 50% inhibitory concentration (IC50) in assay [1] (HB-CLS-2 cells) and in assay [3] were 15 µM and 5.5 µM, respectively.

On to `CCn1ncc(CN(C)C(=O)c2nc(-c3ccc(OC)cc3)nc3ccc(Cl)cc23)c1C` [Compound 373], for which the half-inhibitory concentration (IC50) in assay [1] (HB-CLS-2 cells) came out at 4.5 µM; in assay [3] it was 2.3 µM.

In the case of `CCc1ccc(-c2nc(C(=O)N(C)Cc3cnn(CC)c3C)c3cc(Cl)ccc3n2)cc1` [Compound 374], the IC50 in assay [1] (HB-CLS-2 cells) was 18 µM; in assay [3], 9.2 µM.
